Measured values as given in PubChem BioAssay (NCI).
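Five concentrations, 48 hours, 96-well plates. TGI: concentration producing complete growth inhibition.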

What follows are compounds tested on SW-620 colon (assay: growth of human tumour cells (NCI), 48 h).

Row | SMILES | TGI [µM]
1 | COc1ccc(/C(C)=N/NC(=S)N(C)C)c(O)c1 | > 100
2 | CCCCCC(C(O)C#N)C(O)(C(F)(F)F)C(F)(F)F (configuration not stated) | > 10
3 | CC/C=C\C/C=C\C/C=C\CCCCCCCC(=O)OC(COC(=O)CCCCCCCCCCCCCCCCC)COC1OC(CO)C(O)C(O)C1O (configuration not stated) | > 25
4 | CC12CCC(C/C1=N\NC(N)=O)C2(C)C (configuration not stated) | > 100
5 | COC(=O)C1=C(C)N2[C@H](C(=O)O)CS[C@@]2(C)[C@H](C(=O)OC)[C@H]1c1cccc([N+](=O)[O-])c1 | > 100
6 | COC(=O)C(CCCCNC(=O)CNC(=O)OCc1ccccc1)NC(=O)C(CCCCNC(=O)CNC(=O)OCc1ccccc1)NC(=O)OCc1ccccc1 (configuration not stated) | > 100

What follows are compounds tested on T-47D breast (assay: growth of human tumour cells (NCI), 48 h).

Row | SMILES | TGI [µM]
7 | CCN(CC)C(=S)SS(=O)(=O)c1ccc(C)cc1 | > 100
8 | C[C@@H]1C(=O)CC2(O)[C@@]13C[C@@H](OC(=O)[C@@H]3O)[C@@H](C)[C@@]21COC1=O (some centres not stated) | > 100
9 | COc1ccc(/C(C)=N/NC(=S)N(C)C)c(O)c1 | > 100
10 | CCCCCC(C(O)C#N)C(O)(C(F)(F)F)C(F)(F)F (configuration not stated) | > 10
11 | CC/C=C\C/C=C\C/C=C\CCCCCCCC(=O)OC(COC(=O)CCCCCCCCCCCCCCCCC)COC1OC(CO)C(O)C(O)C1O (configuration not stated) | > 25
12 | CC12CCC(C/C1=N\NC(N)=O)C2(C)C (configuration not stated) | > 100
13 | COC(=O)C1=C(C)N2[C@H](C(=O)O)CS[C@@]2(C)[C@H](C(=O)OC)[C@H]1c1cccc([N+](=O)[O-])c1 | > 100
14 | COC(=O)C(CCCCNC(=O)CNC(=O)OCc1ccccc1)NC(=O)C(CCCCNC(=O)CNC(=O)OCc1ccccc1)NC(=O)OCc1ccccc1 (configuration not stated) | > 100

What follows are compounds tested on TK-10 renal (assay: growth of human tumour cells (NCI), 48 h).

Row | SMILES | TGI [µM]
15 | CCN(CC)C(=S)SS(=O)(=O)c1ccc(C)cc1 | > 100
16 | C[C@@H]1C(=O)CC2(O)[C@@]13C[C@@H](OC(=O)[C@@H]3O)[C@@H](C)[C@@]21COC1=O (some centres not stated) | > 100
17 | CCCCCC(C(O)C#N)C(O)(C(F)(F)F)C(F)(F)F (configuration not stated) | > 10
18 | CC/C=C\C/C=C\C/C=C\CCCCCCCC(=O)OC(COC(=O)CCCCCCCCCCCCCCCCC)COC1OC(CO)C(O)C(O)C1O (configuration not stated) | > 25
19 | CC12CCC(C/C1=N\NC(N)=O)C2(C)C (configuration not stated) | > 100
20 | COC(=O)C1=C(C)N2[C@H](C(=O)O)CS[C@@]2(C)[C@H](C(=O)OC)[C@H]1c1cccc([N+](=O)[O-])c1 | > 100
21 | COC(=O)C(CCCCNC(=O)CNC(=O)OCc1ccccc1)NC(=O)C(CCCCNC(=O)CNC(=O)OCc1ccccc1)NC(=O)OCc1ccccc1 (configuration not stated) | > 100

Each compound was assayed on U251 CNS (assay: growth of human tumour cells (NCI), 48 h).

Row | SMILES | TGI [µM]
22 | CCN(CC)C(=S)SS(=O)(=O)c1ccc(C)cc1 | 69.6
23 | C[C@@H]1C(=O)CC2(O)[C@@]13C[C@@H](OC(=O)[C@@H]3O)[C@@H](C)[C@@]21COC1=O (some centres not stated) | > 100
24 | COc1ccc(/C(C)=N/NC(=S)N(C)C)c(O)c1 | > 100
25 | CCCCCC(C(O)C#N)C(O)(C(F)(F)F)C(F)(F)F (configuration not stated) | > 10
26 | CC/C=C\C/C=C\C/C=C\CCCCCCCC(=O)OC(COC(=O)CCCCCCCCCCCCCCCCC)COC1OC(CO)C(O)C(O)C1O (configuration not stated) | > 25
27 | CC12CCC(C/C1=N\NC(N)=O)C2(C)C (configuration not stated) | > 100
28 | COC(=O)C1=C(C)N2[C@H](C(=O)O)CS[C@@]2(C)[C@H](C(=O)OC)[C@H]1c1cccc([N+](=O)[O-])c1 | > 100
29 | COC(=O)C(CCCCNC(=O)CNC(=O)OCc1ccccc1)NC(=O)C(CCCCNC(=O)CNC(=O)OCc1ccccc1)NC(=O)OCc1ccccc1 (configuration not stated) | > 100

Each compound was assayed on UACC-257 melanoma (assay: growth of human tumour cells (NCI), 48 h).

Row | SMILES | TGI [µM]
30 | CCN(CC)C(=S)SS(=O)(=O)c1ccc(C)cc1 | 46.3
31 | C[C@@H]1C(=O)CC2(O)[C@@]13C[C@@H](OC(=O)[C@@H]3O)[C@@H](C)[C@@]21COC1=O (some centres not stated) | > 100
32 | COc1ccc(/C(C)=N/NC(=S)N(C)C)c(O)c1 | 77.7
33 | CCCCCC(C(O)C#N)C(O)(C(F)(F)F)C(F)(F)F (configuration not stated) | > 10
34 | CC/C=C\C/C=C\C/C=C\CCCCCCCC(=O)OC(COC(=O)CCCCCCCCCCCCCCCCC)COC1OC(CO)C(O)C(O)C1O (configuration not stated) | > 25
35 | CC12CCC(C/C1=N\NC(N)=O)C2(C)C (configuration not stated) | > 100
36 | COC(=O)C1=C(C)N2[C@H](C(=O)O)CS[C@@]2(C)[C@H](C(=O)OC)[C@H]1c1cccc([N+](=O)[O-])c1 | > 100
37 | COC(=O)C(CCCCNC(=O)CNC(=O)OCc1ccccc1)NC(=O)C(CCCCNC(=O)CNC(=O)OCc1ccccc1)NC(=O)OCc1ccccc1 (configuration not stated) | > 100

What follows are compounds tested on UACC-62 melanoma (assay: growth of human tumour cells (NCI), 48 h).

Row | SMILES | TGI [µM]
38 | CCN(CC)C(=S)SS(=O)(=O)c1ccc(C)cc1 | > 100
39 | C[C@@H]1C(=O)CC2(O)[C@@]13C[C@@H](OC(=O)[C@@H]3O)[C@@H](C)[C@@]21COC1=O (some centres not stated) | > 100
40 | COc1ccc(/C(C)=N/NC(=S)N(C)C)c(O)c1 | 20.1
41 | CCCCCC(C(O)C#N)C(O)(C(F)(F)F)C(F)(F)F (configuration not stated) | > 10
42 | CC/C=C\C/C=C\C/C=C\CCCCCCCC(=O)OC(COC(=O)CCCCCCCCCCCCCCCCC)COC1OC(CO)C(O)C(O)C1O (configuration not stated) | > 25
43 | CC12CCC(C/C1=N\NC(N)=O)C2(C)C (configuration not stated) | > 100
44 | COC(=O)C1=C(C)N2[C@H](C(=O)O)CS[C@@]2(C)[C@H](C(=O)OC)[C@H]1c1cccc([N+](=O)[O-])c1 | > 100
45 | COC(=O)C(CCCCNC(=O)CNC(=O)OCc1ccccc1)NC(=O)C(CCCCNC(=O)CNC(=O)OCc1ccccc1)NC(=O)OCc1ccccc1 (configuration not stated) | > 100

The compounds below were run on UO-31 renal (assay: growth of human tumour cells (NCI), 48 h).

Row | SMILES | TGI [µM]
46 | CCN(CC)C(=S)SS(=O)(=O)c1ccc(C)cc1 | 51.2
47 | C[C@@H]1C(=O)CC2(O)[C@@]13C[C@@H](OC(=O)[C@@H]3O)[C@@H](C)[C@@]21COC1=O (some centres not stated) | > 100
48 | COc1ccc(/C(C)=N/NC(=S)N(C)C)c(O)c1 | 36
49 | CC/C=C\C/C=C\C/C=C\CCCCCCCC(=O)OC(COC(=O)CCCCCCCCCCCCCCCCC)COC1OC(CO)C(O)C(O)C1O (configuration not stated) | > 25
50 | CC12CCC(C/C1=N\NC(N)=O)C2(C)C (configuration not stated) | > 100
51 | COC(=O)C1=C(C)N2[C@H](C(=O)O)CS[C@@]2(C)[C@H](C(=O)OC)[C@H]1c1cccc([N+](=O)[O-])c1 | > 100
52 | COC(=O)C(CCCCNC(=O)CNC(=O)OCc1ccccc1)NC(=O)C(CCCCNC(=O)CNC(=O)OCc1ccccc1)NC(=O)OCc1ccccc1 (configuration not stated) | > 100
